These results are taken from patent US9421206B1, “Hematological treatments based on levomefolate” (Cox Bioscience LLC, priority 2013, dated 2016).

The subject of assay [1] is Megaloblastic Bone Marrow Cells (B12 Deficiency). The settings on record: cited from earlier work.
The test system of assay [2] is Megaloblastic Bone Marrow Cells (Folate Deficiency). The settings on record: cited from earlier work.
The nature of assay [3]: Evaluation of NHANES 1999-2002 data: hematological markers by serum folate decile, supplement use and unmetabolized folic acid. It counts as in vivo, human. The settings on record: for effect on production of hemoglobin: seniors aged >=60 y, serum hemoglobin with rising serum folate, with or without unmetabolized folic acid; for impact on homocysteine, methylmalonic acid and lactate dehydrogenase: when homocysteine or lactate dehydrogenase levels are elevated; for effect on MCV: with rising serum folate, with or without supplement use. An excerpt: An evaluation of data gathered through NHANES was undertaken to determine the effect of unmetabolized folic acid on serum hemoglobin concentrations. NHANES monitors the nation's health and nutritional status. The survey is currently implemented as a continuous annual survey and uses a complex multistage probability design to select a representative sample of the non-institutionalized US civilian population. Consistent with NHANES analytic guidelines, this example combines data from two separate survey periods spanning 1999-2002. The methods used herein are described in greater detail in Morris et al., AM. J. CLIN. NUTR. 2012; 91:1733-44, and are repeated herein for a more thorough understanding. A detailed description of blood collection and processing can be found in the NHANES Laboratory Procedures Manual. This particular example focuses on seniors (i.e., those aged ≧60 y), and included 3706 senior survey participants. Hemoglobin concentrations were measured at the MEC laboratory by using a MAXM hematology flow cytometer (Beckman Coulter Inc, Fullerton, Calif.). Detailed methods for all the biochemical assays can be found in the NHANES Laboratory Procedures Manuals. Eligible participants were divided into ten […] based on their serum folate concentrations, so that decile 1 includes the 10% of the participants having the lowest serum folate concentrations, decile 10 includes the 10% of the participants having the highest serum folate concentrations. etc. Participants in each decile were then further subdivided based on the detection of unmetabolized folic acid, and/or the participant's serum B12 or serum iron concentration, and mean hemoglobin concentrations calculated for each decile. Data analyses were performed by using SUDAAN release 9.0 (Research Triangle Institute, Research Triangle Park, N.C.) with appropriate sampling weights, pseudo primary sampling units, and stratification variables to account for the survey's complex sampling design.

A short description of assay [4]: Reanalysis of NHANES 1988-1994 vs 1999-2004: impact of folic acid supplement use on anemia and macrocytosis. It is filed as in vivo, human. As to conditions: men; 1988-1994 to 1999-2004, with increased use of folic acid supplements. An excerpt: In order to determine whether folic acid supplements could be affecting the incidence of macrocytosis in the United States or whether folic acid supplements could be negatively influencing macrocytic processes, NHANES data reported in Ganji et al., AM. J. CLIN. NUTR. 2009; 89:363-71, were reanalyzed, this time over an extended time period from 1988-1994 until 1999-2004, to determine the impact of supplement use on the incidence of macrocytosis and mean corpuscular volume. Unless otherwise indicated, NHANES data collection methods were substantially the same as in Examples 1 and 2. This study used data from 4 surveys: NHANES 1988-1994, NHANES 1999-2000, NHANES 2001-2002, and NHANES 2003-2004. […] For NHANES 1988-1994 and 1999-2004, multivariate-adjusted and univariate values for hemoglobin, hematocrit, and MCV and prevalence rates (%) for overall anemia and macrocytosis were determined according to sex, race-ethnicity, age, poverty, and vitamin/mineral supplement use (yes or no). Prevalence of anemia (%) based on low hemoglobin concentrations and prevalence of macrocytosis (%) based on high MCV values were determined for the aforementioned demographic categories. The differences in hemoglobin, hematocrit, MCV, and prevalence of anemia and macrocytosis between NHANES 1988-1994 and NHANES 1999-2004 were determined with a 2-tailed unpaired t test. […]

The conditions of assay [5]: apparently healthy human subjects; cited from earlier work.
The mark [6] stands for this setting: B12 deficiency, concentration 0.3 (unit not given).
[7] abbreviates: B12 deficiency, concentration 1 (unit not given).
The mark [8] stands for this setting: B12 deficiency, concentration 3 (unit not given).
The mark [9] stands for this setting: B12 deficiency, concentration 6 (unit not given).
[10] abbreviates: B12 deficiency, concentration 15 (unit not given).
Setting [11] is: B12 deficiency, concentration 30 (unit not given).
Where [12] appears, read: concentration 0.3 (unit not given).
The mark [13] stands for this setting: concentration 1 (unit not given).
The mark [14] stands for this setting: concentration 3 (unit not given).
Where [15] appears, read: concentration 6 (unit not given).
Where [16] appears, read: concentration 30 (unit not given).
The mark [17] stands for this setting: B12 deficiency, concentration 75 (unit not given).
Where [18] appears, read: B12 deficiency, concentration 300 (unit not given).
Where [19] appears, read: concentration 15 (unit not given).
The mark [20] stands for this setting: concentration 300 (unit not given).

Read-outs that look alike come from different tables or passages of the source.

With `Nc1nc(=O)c2c([nH]1)NCC(CNc1ccc(C(=O)N[C@@H](CCC(=O)O)C(=O)O)cc1)N2C=O` (mixture of isomers) [folinic acid], the “dU suppression test value” in assay [1] (setting [6]) is 4.5%; in assay [1] (setting [7]) it was 2.5%; in assay [1] (setting [8]), 1.9%; in assay [1] (setting [9]), 2.0%; in assay [1] (setting [10]), 2.2%; in assay [1] (setting [11]), 1.6%. Moreover, the “dU suppression test value” in assay [2] (setting [12]) is listed as 3.4%; in assay [2] (setting [13]), 1.9%; in assay [2] (setting [14]) it was 1.9%; in assay [2] (setting [15]), 1.3%; in assay [2] (setting [16]), 1.0%. For the same molecule, the “effectiveness in overcoming the defect in DNA precursor synthesis” value in assay [1] (all types of vitamin deficiency) is on record as “most effective”.
On to `Nc1nc2ncc(CNc3ccc(C(=O)N[C@@H](CCC(=O)O)C(=O)O)cc3)nc2c(=O)[nH]1` [folic acid], for which the “effect on MCV in survey participants with elevated LDH levels” value in assay [3] (LDH > 198 U/L, as folate concentrations increased) is “increased the MCV”. Also, the “effect on red cell count” value in assay [3] (same folate levels, with vs without folic acid supplements) is recorded as “red cell count is improved in the absence of folic acid”. The “effect on production of hemoglobin” value in assay [3] is on record as “reduces the production of hemoglobin”. The “impact on homocysteine, methylmalonic acid and lactate dehydrogenase” value in assay [3] is “negative impact”. In addition, the “effect on MCV” value in assay [3] was “leads to increases in MCV”. Also, the incidence of macrocytosis result in assay [4] is “increased”. For the same molecule, the prevalence of anemia entry in assay [4] was “dropped”. In addition, the “dU suppression test value” in assay [1] (setting [7]) is on record as 14.8%; in assay [1] (setting [8]) it was 12%; in assay [1] (B12 deficiency, concentration 50 (unit not given)), 4.1%; in assay [2] (setting [13]), 10.3%; in assay [2] (concentration 5 (unit not given)) it was 5.5%; in assay [2] (concentration 50 (unit not given)), 2.3%.
With `CN1c2c(nc(N)[nH]c2=O)NC[C@@H]1CNc1ccc(C(=O)N[C@@H](CCC(=O)[O-])C(=O)[O-])cc1.[Ca+2]` [me-THF, L-5-methyltetrahydrofolate], in assay [3], the “effect on production of hemoglobin” value is given as “promotes the production of hemoglobin”. Also, the “impact on homocysteine, methylmalonic acid and lactate dehydrogenase” value in assay [3] is recorded as “positive impact”. In addition, the “effect on MCV” value in assay [3] was “generally leads to a reduction in MCV”. The “dU suppression test value” in assay [1] (setting [8]) is 16.1%; in assay [1] (setting [11]), 12.9%; in assay [1] (setting [17]), 18.4%; in assay [1] (setting [18]), 15.7%; in assay [2] (setting [14]), 3.9%; in assay [2] (setting [15]), 4.6%. Further, the entries for the “dU suppression test value” in assay [2] (setting [19]), in assay [2] (setting [16]) and in assay [2] (setting [20]) were 2.7%, 4.5% and 4.3%, respectively. The “concentration restoring normal dU suppression” value in assay [1] (vitamin B12 deficiency) is above 300 µg/mL. In addition, the “effect on homocysteine levels” value in assay [5] was “decrease homocysteine levels”.
On to tetrahydrofolate [THF], for which the “dU suppression test value” in assay [1] (setting [6]) was 10.8%; in assay [1] (setting [7]), 8.1%; in assay [1] (setting [8]), 9.3%; in assay [1] (setting [9]) it was 6.3%; in assay [1] (setting [10]), 4.9%; in assay [1] (setting [11]), 5.0%. Besides, the “dU suppression test value” in assay [1] (setting [17]) is on record as 3.5%; in assay [1] (setting [18]), 2.4%; in assay [2] (setting [12]) it was 14.3%; in assay [2] (setting [13]), 8.6%; in assay [2] (setting [14]), 4.0%; in assay [2] (setting [15]) it was 2.5%. Also, the entries for the “dU suppression test value” in assay [2] (setting [19]), in assay [2] (setting [16]) and in assay [2] (setting [20]) were 2.1%, 2.2% and 1.9%, respectively. Further, the “level giving correction of dU suppression” value in assay [1] (megaloblastic anemia due to vitamin B12 deficiency) is listed as “above 6 mL/ml”.
As for “α-(5,6-dimethylbenzimidazolyl)cobamide [B12]”, the “dU suppression test value” in assay [1] (B12 deficiency, 10 mcg/ml) is reported as 5.8%; in assay [2] (10 mcg/ml), 12.3%; in assay [2] (100 mcg/ml) it was 16.3%. The “dU suppression test value ((3H)-TdR incorporation with dU as percentage of incorporation without dU)” value in assay [1] (B12 deficiency, 100 mcg/ml) is given as 5.7%.
